Measurements: patent US20220062291A1, “COMPOSITIONS AND METHODS OF TREATING CANCERS BY ADMINISTERING A PHENOTHIAZINE-RELATED DRUG THAT ACTIVATES PROTEIN PHOSPHATASE 2A (PP2A) WITH REDUCED INHIBITORY ACTIVITY TARGETED TO THE DOPAMINE D2 RECEPTOR AND ACCOMPANYING TOXICITY” (DANA-FARBER CANCER INSTITUTE, INC., priority 2018, published 2022)
pIC50: −log10 of the molar value. Read-outs that look alike come from different tables or passages of the source.

Assays:
[1] = molecular target: T1, human dopamine receptor D2 (DRD2) (Homo sapiens, UniProt P14416); experiment: Dopamine receptor D2 inhibition assay (SRE-luciferase reporter in HEK293T cells); type: cell-based; details: for inhibition of DRD2 signaling: 10 μM for 3 hours
T1 construct: expressed in transfected cells; host or cells: HEK293T (pcDNA3 vectors)
T1 sequence (P14416 whole entry): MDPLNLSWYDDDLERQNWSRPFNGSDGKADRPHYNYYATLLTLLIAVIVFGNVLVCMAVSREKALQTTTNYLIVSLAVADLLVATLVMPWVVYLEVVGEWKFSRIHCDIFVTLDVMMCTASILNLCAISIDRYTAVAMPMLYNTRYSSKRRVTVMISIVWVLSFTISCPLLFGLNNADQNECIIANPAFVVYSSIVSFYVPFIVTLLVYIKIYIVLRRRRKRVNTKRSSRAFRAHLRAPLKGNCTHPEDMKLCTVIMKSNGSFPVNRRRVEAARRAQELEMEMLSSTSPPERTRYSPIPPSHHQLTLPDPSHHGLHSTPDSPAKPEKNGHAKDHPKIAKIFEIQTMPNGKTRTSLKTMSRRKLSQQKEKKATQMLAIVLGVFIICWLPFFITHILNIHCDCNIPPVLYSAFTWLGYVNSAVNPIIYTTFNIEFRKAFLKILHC
Text: (§1) The human dopamine receptor D2 (DRD2) and modified murine Gq5i cDNAs were inserted into pcDNA3 expression vectors. After verifying the PCR products by DNA sequencing, DRD2, Gq5i and the PathDetect pSRE-Luc Cis-Reporter Plasmid (#219080, Agilent Technologies) were transfected to HEK293T cells. As previously reported, Gq5i enables Gi/o-coupled receptor activity to be detected using a serum response element (SRE)-luciferase reporter gene (See, Conklin et al., Nature 363(6426):274-6 (1993); Al-Fulaij et al., J. Pharmacol. Exp. Ther. 321(1):298-307 (2007)). These cells were starved in FCS-free DMEM medium for six hours before incubating them with 2 μM dopamine hydrochloride (Sigma Aldrich) together with each of the compound at 0, 0.5, 1, 2 and 4 μM for three hours. The reporter activity was measured using Pierce™ Firefly Luciferase Glow Assay Kit (Thermo Fisher Scientific).
(§2) For IC50 calculation, KOPT-K1 cells were treated with each of the compounds at various concentrations for 72 hours, followed by the determination of viable cell numbers with PrestoBlue® cell viability reagent. For the PP2A phosphatase activity assay, KOPT-K1 cells were treated with each of the compounds at 10 μM for 3 hours before phosphatase activity was measured. Dopamine D2 receptor activity was monitored in HEK293T cells coexpressing the dopamine D2 receptor, modified G protein and SRE luciferase reporter. Cells were treated with each of the compound at 10 μM for 3 hours, then lysed for the luciferase reporter assay.
as §1, with “D2” for “D2 (DRD2)”, “363(6426):274-276” for “363(6426):274-6”, “0.5” for “0, 0.5, 1, 2 and 4”

PP2A subunits = experiment: Co-immunoprecipitation of PP2A subunits (holoenzyme assembly); parameters: species or system human; details: KOPT-K1 cells, 10 μM, 24 hours
Text: The biochemical activity of iPAP1 was further characterized by addressing whether it acts exclusively on the three identified subunits to mediate the assembly of PP2A, or whether other proteins expressed by T-ALL cells are also required. Using baculovirus vectors, each subunit of PP2A was first expressed with a C-terminal tag in Hi5 insect cells, and then purified the subunit proteins using columns with antibodies against the tags bound to agarose beads (see, Example 5, FIG. 13-FIG. 14). […] PP2A is a unique enzyme consisting of three subunits and it needs to be properly assembled into a holoenzyme before it mediates phosphatase activity. […] The protein lysates were then immunoprecipitated with anti-PPP2CA antibody or normal IgG as a control, and the precipitates were immunoblotted with antibodies specifically detecting each of the PP2A subunits. […] Nuclear and cytoplasmic fractions were separated using NE-PER™ Nuclear and Cytoplasmic Extraction Kit (Thermo Fisher Scientific), and each of the subunits of PP2A was analyzed by western blot. Histone H3 and α tubulin expression levels were used as loading controls for nuclear and cytoplasmic fractions, respectively. […] Lysates were immunoprecipitated using an anti-PPP2CA antibody, and then blotted with antibodies specific for each PP2A subunit. […] The results of a co-immunoprecipitation assay using an anti-PPP2CA antibody for immunoprecipitation in KOPT-K1 cells treated with SMAP at 10 μM or control DMSO for 24 hours before they were lysed for protein extraction are illustrated in FIG. 9B. Lysates were immunoprecipitated using an anti-PPP2CA antibody, and then blotted with antibodies specific for each PP2A subunit.

KOPT-K1 cells [2] = experiment: KOPT-K1 cell viability (PrestoBlue), IC50 after 72 hours; type: cell-based, human; details: for pIC50: 72 hours, PrestoBlue, read-out: IC50 value against KOPT-K1 cells
Experimental: as §2
(§3) For IC50 calculations, KOPT-K1 cells were treated with each of the compound at various concentrations for 72 hours, then their viability was examined by PrestoBlue® Cell Viability Reagent (Thermo Fisher Scientific). For PP2A phosphatase activity assay, KOPT-K1 cells were treated with each of the compound at 10 μM for three hours before the activity of PP2A was quantified using PP2A Immunoprecipitation Phosphatase Assay Kit (Merck Millipore®). DRD2 activity was monitored in HEK293T cells expressing DRD2, modified G protein and SRE luciferase reporter. Cells were treated with each of the compounds at 10 μM for three hours, then lysed for luciferase reporter assay. […] The biochemical assays were performed as indicated in Examples 7 and 8.

[3] = test system: KOPT-K1 cells with PP2A subunit inactivation; experiment: Drug sensitivity of KOPT-K1 sublines with CRISPR-Cas9 PP2A subunit knockout; type: cell-based, human; details: SMAP 5 μM, 72 hours
Experimental: Two gRNAs with different target sequences were designed for each subunit (#1 and #2). Control gRNAs target luciferase gene. […] Data are presented as means±s.d. (n=3-5, biological replicates). ***P<0.001 by Student's t-test (FIG. 3A).
SMAP sensitivity in KOPT-K1 cells was measured after PP2A subunit inactivation. Only each subunit of PP2A was knocked out by CRISPR-Cas9 with unique gRNAs. […] Two gRNAs with different target sequences were designed for each subunit (#1 and #2). Control gRNAs target luciferase gene. Data are presented as means±s.d. (n=3-5, biological replicates). ***P<0.001 by Student's t-test (FIG. 3B).
To identify the subunits of PP2A that are essential for the antitumor activity of iPAP1, CRISPR-Cas9 was used to establish a series of sublines of KOPT-K1 T-ALL cells, each lacking one of the 19 specific PP2A subunits (FIG.1A-FIG. 2), and to examine their sensitivity to iPAP1-induced growth inhibition.
With this panel of PP2A subunit knockout cells in hand, we analyzed the PP2A subunits required for growth suppression by SMAPs, another class of allosteric activators of PP2A (Gutierrez et al., J. Clin. Invest. 124:644-655 (2014); Sangodkar et al., J. Clin. Invest. 127:2081-2090 (2017)). […] Both the PPP2R5E and PPP2R2A regulatory subunits of PP2A were among the most highly expressed in a series of 16 different T-ALL cell lines (FIG. 5A). Thus, the assembly of structurally different heterotrimeric PP2A complexes induced with either iPAP1 or SMAP cannot be attributed to imbalances in cellular expression levels of individual PP2A subunits, but likely stems from differences in the allosteric alterations of the A subunit protein resulting from the binding of these two classes of small molecules, which have different chemical structures.

PP2A [4] = experiment: PP2A phosphatase activity in treated KOPT-K1 cells; type: cell-based, human; details: KOPT-K1 cells, 10 μM
Experimental: (§4) Data are presented as means±s.d. (n=3, biological replicates). KO; knock out. **P<0.01, ***P<0.001 by student's t-test.
as §2
as §3, with “For PP2A phosphatase activity assay, KOPT-K1 cells were treated with each of the compound at 10 μM for three hours before the activity of PP2A was quantified using PP2A Immunoprecipitation Phosphatase Assay Kit (Merck Millipore®).” left out

PP2A [5] = molecular target: T2, PP2A (Homo sapiens, UniProt P30153+P67775+Q16537); experiment: PP2A phosphatase activity in treated KOPT-K1 cells; type: cell-based; details: KOPT-K1, 10 μM for 3 hours
T2 construct: are endogenously expressed by KOPTK1 cells; endogenous in cells; host or cells: KOPT-K1 T-ALL cells / lysates
T2 sequence (P30153 2-589): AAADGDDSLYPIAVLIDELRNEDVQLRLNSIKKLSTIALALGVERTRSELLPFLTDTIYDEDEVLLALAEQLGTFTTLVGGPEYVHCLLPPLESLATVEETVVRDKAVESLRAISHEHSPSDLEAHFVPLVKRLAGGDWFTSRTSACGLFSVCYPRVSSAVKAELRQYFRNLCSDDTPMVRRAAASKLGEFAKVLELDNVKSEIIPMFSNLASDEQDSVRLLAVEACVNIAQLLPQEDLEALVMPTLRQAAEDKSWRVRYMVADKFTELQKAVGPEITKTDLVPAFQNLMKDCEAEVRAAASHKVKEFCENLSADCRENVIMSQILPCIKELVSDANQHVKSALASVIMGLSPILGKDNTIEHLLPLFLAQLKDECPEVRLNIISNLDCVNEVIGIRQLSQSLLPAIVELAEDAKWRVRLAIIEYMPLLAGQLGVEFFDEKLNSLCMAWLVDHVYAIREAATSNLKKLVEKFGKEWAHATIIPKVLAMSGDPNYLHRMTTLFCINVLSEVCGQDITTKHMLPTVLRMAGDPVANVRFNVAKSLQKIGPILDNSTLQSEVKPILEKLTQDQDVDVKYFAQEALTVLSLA
T2 sequence (P67775 whole entry): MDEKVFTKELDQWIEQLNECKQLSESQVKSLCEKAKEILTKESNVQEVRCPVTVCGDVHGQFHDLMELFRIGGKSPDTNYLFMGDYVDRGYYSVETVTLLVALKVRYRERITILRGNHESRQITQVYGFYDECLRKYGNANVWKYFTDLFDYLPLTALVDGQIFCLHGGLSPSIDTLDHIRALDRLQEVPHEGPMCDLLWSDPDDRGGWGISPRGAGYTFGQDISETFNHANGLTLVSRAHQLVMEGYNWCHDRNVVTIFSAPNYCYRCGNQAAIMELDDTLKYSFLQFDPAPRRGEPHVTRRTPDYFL
T2 sequence (Q16537 2-467): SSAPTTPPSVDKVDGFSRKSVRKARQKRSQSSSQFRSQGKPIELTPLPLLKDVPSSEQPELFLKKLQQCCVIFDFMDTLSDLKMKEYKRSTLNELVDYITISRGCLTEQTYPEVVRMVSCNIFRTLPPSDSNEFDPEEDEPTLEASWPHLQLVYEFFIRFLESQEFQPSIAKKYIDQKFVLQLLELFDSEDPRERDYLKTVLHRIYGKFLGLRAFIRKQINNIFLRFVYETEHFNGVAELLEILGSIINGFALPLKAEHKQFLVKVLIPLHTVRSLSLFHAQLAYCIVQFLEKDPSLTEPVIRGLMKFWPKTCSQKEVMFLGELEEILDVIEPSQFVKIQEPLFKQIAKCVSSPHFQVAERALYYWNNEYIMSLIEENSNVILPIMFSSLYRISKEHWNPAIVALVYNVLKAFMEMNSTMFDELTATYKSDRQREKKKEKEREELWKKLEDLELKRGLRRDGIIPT
Experimental: as §4, §2
as §3, with “For PP2A phosphatase activity assay, KOPT-K1 cells were treated with each of the compound at 10 μM for three hours before the activity of PP2A was quantified using PP2A Immunoprecipitation Phosphatase Assay Kit (Merck Millipore®).” left out

KOPT-K1 cells [6] = experiment: Cell cycle status by PI flow cytometry; type: cell-based, human; details: 10 μM and 20 μM, 24 hours
Experimental: Relative DNA content of cells in each of the samples was determined by measuring PI (propidium iodide) staining using flow cytometry. The results are illustrated in FIG. 31A-FIG. 31B.
Relative DNA content of cells in each of the samples was determined as described above.

[7] = molecular target: tubulin from porcine brain (Sus scrofa, UniProt P02550+P02554); experiment: Fluorescence-based tubulin polymerization assay; details: 3 μM
Sequence of tubulin from porcine brain (P02550 whole entry): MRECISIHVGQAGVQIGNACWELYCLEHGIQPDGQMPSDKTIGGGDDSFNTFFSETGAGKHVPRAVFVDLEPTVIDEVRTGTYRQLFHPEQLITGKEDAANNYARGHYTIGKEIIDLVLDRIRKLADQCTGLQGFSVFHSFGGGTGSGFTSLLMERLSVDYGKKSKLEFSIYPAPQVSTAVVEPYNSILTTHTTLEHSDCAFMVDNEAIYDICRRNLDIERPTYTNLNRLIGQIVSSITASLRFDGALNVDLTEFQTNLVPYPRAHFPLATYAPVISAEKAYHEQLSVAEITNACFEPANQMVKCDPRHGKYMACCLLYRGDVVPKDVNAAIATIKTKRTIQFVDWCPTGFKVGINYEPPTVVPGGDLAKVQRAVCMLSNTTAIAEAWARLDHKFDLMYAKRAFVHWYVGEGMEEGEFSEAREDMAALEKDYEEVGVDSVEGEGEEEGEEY
Sequence of tubulin from porcine brain (P02554 whole entry): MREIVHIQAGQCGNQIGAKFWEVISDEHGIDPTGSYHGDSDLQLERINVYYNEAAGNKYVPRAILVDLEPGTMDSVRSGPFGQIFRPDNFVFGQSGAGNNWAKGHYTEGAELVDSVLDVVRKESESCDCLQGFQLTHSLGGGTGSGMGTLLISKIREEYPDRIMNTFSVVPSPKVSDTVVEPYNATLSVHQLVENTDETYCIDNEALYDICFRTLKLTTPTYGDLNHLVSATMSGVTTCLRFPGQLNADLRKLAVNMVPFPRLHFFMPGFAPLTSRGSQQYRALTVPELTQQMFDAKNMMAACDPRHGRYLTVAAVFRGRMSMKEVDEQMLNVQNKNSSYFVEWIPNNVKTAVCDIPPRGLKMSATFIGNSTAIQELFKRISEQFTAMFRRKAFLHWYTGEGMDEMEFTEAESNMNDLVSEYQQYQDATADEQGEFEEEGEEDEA
Experimental: Briefly, free tubulin (2 mg/mL) in buffer supplemented with 1 mM GTP and 15% glycerol was employed. Then, the test compounds were added to tubulin solution and changes in the fluorescence intensity (ex=370 nm, em=445 nm) were measured by kinetic reading at 37° C. using SpectraMax® M5 Microplate reader (Molecular Devices LLC).

KOPT-K1 cells [8] = experiment: Microtubule and chromatin staining of cytospins; type: cell-based, human; details: 0.001 and 0.0001 μM, 24 hours
[9] = 0.5 μM for three hours with 2 μM dopamine

Structure (SMILES): O=S(=O)(N[C@@H]1CCC[C@H](N2c3ccccc3Oc3ccccc32)[C@H]1O)c1ccc(OC(F)(F)F)cc1 [SMAP, reference compound]
- inhibitory activities on DRD2 [1, 9]: did not show inhibitory activities on DRD2
- inhibition of DRD2 signaling [1]: lacked DRD2 inhibitory activity
- PP2A subunits co-immunoprecipitated with anti-PPP2CA antibody (PP2A subunits): trimeric complex nucleated by SMAP contains PPP2CA, PPP2R1A and PPP2R2A
- pIC50 (KOPT-K1 cells [2]): ~5.30
- PP2A subunits whose knockout gives resistance [3]: resistant to SMAP treatment only when the PPP2R1A, PPP2CA or PPP2R2A subunit was disrupted
- phosphatase activity of PP2A relative to basal level (PP2A [4]): up to twice its basal level
- PP2A activation potential (PP2A [5]): much less potent than iPAP1, iPAP2, iPAP3 or iPAP4 in phosphatase activity
- cell cycle status (KOPT-K1 cells [6]): arrested in G0/G1 phase

Structure (SMILES): O=c1[nH]c2ccccc2n1CCCN1CCC(n2c(=O)[nH]c3cc(Cl)ccc32)CC1 [domperidone, reference compound]
- inhibition of DRD2 signaling [1]: strong inhibitors

Structure (SMILES): C=C[C@@]1(C)CC(=O)[C@]2(O)[C@@]3(C)[C@@H](O)CCC(C)(C)[C@@H]3[C@H](O)[C@H](OC(C)=O)[C@@]2(C)O1 [forskolin, reference compound]
- inhibition at 0.5 µM ([1]; HEK-293T, 0.5 μM for three hours with 2 μM dopamine): ~30%

Structure (SMILES): COc1ccc(C(=O)N2c3ccccc3Sc3ccc([N+](=O)[O-])cc32)cc1 [iPAP2]
- pIC50 (KOPT-K1 cells [2]; Homo sapiens, KOPTK1, 72 h): ~6.00

Structure (SMILES): COc1ccc(C(=O)N2c3ccccc3Sc3ccc(C#N)cc32)cc1 [iPAP3]
- pIC50 (KOPT-K1 cells [2]; Homo sapiens, KOPTK1, 72 h): ~6.52

Structure (SMILES): COc1ccc(C(=O)N2c3ccccc3Sc3cc(C#N)ccc32)cc1 [iPAP4]
- inhibition of DRD2 signaling [1]: very low inhibition of DRD2 signaling
- pIC50 (KOPT-K1 cells [2]): 7.40 to 7.52
- pIC50 (KOPT-K1 cells [2]; Homo sapiens, KOPTK1, 72 h): ~7.52
- IC50 lower than PPZ (KOPT-K1 cells [2]; KOPT-K1, 72 hours): ~100 fold
- IC50 lower than iPAP1 (KOPT-K1 cells [2]; KOPT-K1, 72 hours): ~10 fold
- PP2A activation potential (PP2A [5]): relatively high PP2A activation potential compared to PPZ

Structure (SMILES): Cc1ccccc1C(=O)N1c2ccccc2Sc2ccc(Cl)cc21 [iPAP5]
- inhibitory activities on DRD2 [1, 9]: did not show inhibitory activities on DRD2

Structure (SMILES): CCN1CCCC1CNC(=O)c1cc(S(N)(=O)=O)ccc1OC (stereo not shown) [sulpiride, reference compound]
- inhibition of DRD2 signaling [1]: strong inhibitors

Structure (SMILES): CC[C@]1(O)C[C@H]2CN(CCc3c([nH]c4ccccc34)[C@@](C(=O)OC)(c3cc4c(cc3OC)N(C=O)[C@H]3[C@@](O)(C(=O)OC)[C@H](OC(C)=O)[C@]5(CC)C=CCN6CC[C@]43[C@@H]65)C2)C1 [vincristine, reference compound]
- inhibition of tubulin polymerization [7]: markedly inhibited tubulin polymerization
- mitotic and microtubule phenotype (KOPT-K1 cells [8]): without detectable microtubules
